Values quoted from earlier work in US8541223B2, “Lactic acid bacteria having action of lowering blood uric acid level” (Meiji Co., Ltd., priority 2007, dated 2013).

Tested on: dietary hyperuricemia model animals
Settings: oral administration of allopurinol; from Food Function Research News vol. 14

Oc1ncnc2[nH]ncc12 [allopurinol]
blood uric acid level in the model animals: significantly suppressed
